Experiments:
Aβ1-42 = experiment: Measurement of Aβ1-42 in culture medium of 7W WT APP751 CHO cells by ELISA; assay type: cell-based, Chinese hamster; settings: for activity at 5 µM: Cricetulus griseus, Table 1, 5 μM test compound, CHO cells stably transfected with human APP751, culture medium, ELISA, control DMSO, 0 = no detectable amount, read-out: Aβ1-42 (% of control); for Aβ1-42 (% of control): CHO cells that overexpress APP751, zero = below the detection limit of the assay
Aβ1-40 = experiment: Measurement of Aβ1-40 in culture medium of 7W WT APP751 CHO cells by ELISA; assay type: cell-based, Chinese hamster; settings: for activity at 5 µM: Cricetulus griseus, Table 1, 5 μM test compound, CHO cells stably transfected with human APP751, culture medium, ELISA, control DMSO, 0 = no detectable amount; for Aβ1-40 (% of control): CHO cells that overexpress APP751, zero = below the detection limit of the assay
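Further: 5 µM test compound but RI-coded compounds at 10 µM for 24 hours.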

| Compound | activity at 5 µM (Aβ1-42) | activity at 5 µM (Aβ1-40) | Aβ1-42 (% of control) (Aβ1-42) | Aβ1-40 (% of control) (Aβ1-40) |
| --- | --- | --- | --- | --- |
| COc1ccc(C2C(C(=O)OC3CCCC3)=C(C)NC3=C2C(=O)CCC3)cc1Br (stereo not shown) [ST013137, cyclopentyl 4-(3-bromo-4-methoxyphenyl)-2-methyl-5-oxo-1,4,6,7,8-pentahydroquinoline-3-carboxylate] | 30% | 18.7% |  |  |
| COc1cccc(NC(=O)CSC2=C(C#N)C(c3ccccc3)C(C(=O)Nc3ccc(Cl)cc3)=C(C)N2)c1 (stereo not shown) [RI_55] |  |  | 40.3 % of control | 48.1 % of control |
| CCc1cccc(NC(=O)CSC2=C(C#N)C(c3ccc(-c4ccco4)s3)C(C(=O)Nc3ccccc3)=C(C)N2)c1 (stereo not shown) [RI_85] |  |  | 46.7 % of control | 98.5 % of control |
| CCc1ccc(C2C(C(=O)OC(C)C)=C(C)NC3=C2C(=O)CCC3)cc1 (stereo not shown) [ST013191, methylethyl 4-(4-ethylphenyl)-2-methyl-5-oxo-1,4,6,7,8-pentahydroquinoline-3-carboxylate] | 98% | 33.4% |  |  |
| CCc1cccc(NC(=O)CSC2=C(C#N)C(c3ccc(-c4ccccc4)s3)C(C(=O)Nc3ccccc3)=C(C)N2)c1 (stereo not shown) [RI_89] |  |  | 55.1 % of control | 63.7 % of control |
| CC1=C(C(=O)OCC(C)C)C(c2cc([N+](=O)[O-])ccc2Cl)C2=C(CCCC2=O)N1 (stereo not shown) [ST052351, 2-methylpropyl 4-(2-chloro-5-nitrophenyl)-2-methyl-5-oxo-1,4,6,7,8-pentahydroquinoline-3-carboxylate] | 20.3% | 19.3% |  |  |
| CC1=C(C(=O)OCCOc2ccccc2)C(c2cccc(Oc3ccccc3)c2)C2=C(CC(C)(C)CC2=O)N1 (stereo not shown) [ST015055, 2-phenoxyethyl 2,7,7-trimethyl-5-oxo-4-(3-phenoxyphenyl)-1,4,6,7,8-pentahydroquinoline-3-carboxylate] | 78.2% | 13.6% |  |  |
| COCCOC(=O)C1=C(C)NC2=C(C(=O)CC(c3ccc(OC)cc3)C2)C1c1cccc(OC)c1 (stereo not shown) [ST017097, 2-methoxyethyl 4-(3-methoxyphenyl)-7-(4-methoxyphenyl)-2-methyl-5-oxo-1,4,6,7,8-pentahydroquinoline-3-carboxylate] | 80.9% | 68.2% |  |  |
| CCN(CC)c1ccc(C2C(C(=O)OCCOc3ccccc3)=C(C)NC3=C2C(=O)CC(C)(C)C3)cc1 (stereo not shown) [ST015075, 2-phenoxyethyl 4-[4-(diethylamino)phenyl]-2,7,7-trimethyl-5-oxo-1,4,6,7,8-pentahydroquinoline-3-carboxylate] | 42.2% | 51.7% |  |  |
| COC(=O)C1=C(C)NC2=C(C(=O)CCC2)C1c1cc(F)ccc1F (stereo not shown) [ST052368, methyl 4-(2,5-difluorophenyl)-2-methyl-5-oxo-1,4,6,7,8-pentahydroquinoline-3-carboxylate] | 74.2% | 66.3% |  |  |
| CC1=C(C(=O)OCCOc2ccccc2)C(c2ccc3c(c2)OCO3)C2=C(CC(C)(C)CC2=O)N1 (stereo not shown) [ST015103, 2-phenoxyethyl 4-(2H-benzo[3,4-d]1,3-dioxolan-5-yl)-2,7,7-trimethyl-5-oxo-1,4,6,7,8-pentahydroquinoline-3-carboxylate] | 73.5% | 35.3% |  |  |
| Cc1ccccc1/C=c1/sc2n(c1=O)C(N)=C(C#N)C(c1ccccc1C)C=2C#N (stereo not shown) [ST003359, 5-amino-7-(2-methylphenyl)-2-[(2-methylphenyl)methylene]-3-oxo-4,7-dihydro-1,3-thiazolidino[3,2-a]pyridine-6,8-dicarbonitrile] |  |  | 98.22 % of control | 56.16 % of control |
| CCOc1cc(/C=c2\sc3n(c2=O)C(N)=C(C#N)C(c2ccc(O)c(OCC)c2)C=3C#N)ccc1O (stereo not shown) [ST025033, 5-amino-7-(3-ethoxy-4-hydroxyphenyl)-2-[(3-ethoxy-4-hydroxyphenyl)methylene]-3-oxo-4,7-dihydro-1,3-thiazolidino[3,2-a]pyridine-6,8-dicarbonitrile] |  |  | 57.6 % of control | 53.66 % of control |
| CC1=C(C(=O)OCc2ccccc2)C(c2ccc(C(F)(F)F)cc2)C2=C(CCCC2=O)N1 (stereo not shown) [ST052323, phenylmethyl 2-methyl-5-oxo-4-[4-(trifluoromethyl)phenyl]-1,4,6,7,8-pentahydroquinoline-3-carboxylate] | 0% | 4.91% |  |  |
| CCCCCOC(=O)C1=C(C)NC2=C(C(=O)CC(C)(C)C2)C1c1ccc(Cl)c(Cl)c1 (stereo not shown) [ST216061, pentyl 4-(3,4-dichlorophenyl)-2,7,7-trimethyl-5-oxo-1,4,6,7,8-pentahydroquinoline-3-carboxylate] | 0% | 0% |  |  |
| CC1=C(C(=O)OCc2ccccc2)C(c2ccc(N(C)C)cc2)C2=C(CCCC2=O)N1 (stereo not shown) [ST013212, phenylmethyl 4-[4-(dimethylamino)phenyl]-2-methyl-5-oxo-1,4,6,7,8-pentahydroquinoline-3-carboxylate] | 93.7% | 50.8% |  |  |

| Compound | activity at 5 µM (Aβ1-42) | activity at 5 µM (Aβ1-40) | Aβ1-42 (% of control) (Aβ1-42) | Aβ1-40 (% of control) (Aβ1-40) |
| --- | --- | --- | --- | --- |
| CCOC(=O)C1=CN(c2cc(C)ccc2C)C=C(C(=O)OCC)C1c1ccc(OCC)c(OC)c1 [ST052471, ethyl 1-(2,5-dimethylphenyl)-5-(ethoxycarbonyl)-4-(4-ethoxy-3-methoxyphenyl)-1,4-dihydropyridine-3-carboxylate] |  |  | 57.75 % of control | 34.26 % of control |
| N#CC1=C(N)NC(SCC(N)=O)=C(C#N)C1c1ccccc1Cl (stereo not shown) [ST050859, 2-[6-amino-4-(2-chlorophenyl)-3,5-dicyano-2-1,4-dihydropyridylthio]acetamide] |  |  | 35.47 % of control | 75.54 % of control |
| CCOCCOC(=O)C1=C(C)NC2=C(C(=O)CCC2)C1c1ccc(CC)cc1 (stereo not shown) [ST013344, 2-ethoxyethyl 4-(4-ethylphenyl)-2-methyl-5-oxo-1,4,6,7,8-pentahydroquinoline-3-carboxylate] | 86.6% | 54.4% |  |  |
| COCCOC(=O)C1=C(C)NC2=C(C(=O)CCC2)C1c1ccc(O)cc1 (stereo not shown) [ST013254, 2-methoxyethyl 4-(4-hydroxyphenyl)-2-methyl-5-oxo-1,4,6,7,8-pentahydroquinoline-3-carboxylate] | 76.9% | 49.6% |  |  |
| CCOC(=O)C1=CN(c2cc(C)ccc2C)C=C(C(=O)OCC)C1c1ccc(OC)c(OC)c1OC [ST052487, ethyl 1-(2,5-dimethylphenyl)-5-(ethoxycarbonyl)-4-(2,3,4-trimethoxyphenyl)-1,4-dihydropyridine-3-carboxylate] |  |  | 15.1 % of control | 11.56 % of control |
| COC(=O)C1=C(C)NC2=C(C(=O)CC(c3ccc(OC)cc3)C2)C1c1cccc([N+](=O)[O-])c1 (stereo not shown) [ST013333, methyl 7-(4-methoxyphenyl)-2-methyl-4-(3-nitrophenyl)-5-oxo-1,4,6,7,8-pentahydroquinoline-3-carboxylate] | 51.6% | 48.4% |  |  |
| CCCCCOC(=O)C1=C(C)NC2=C(C(=O)CCC2)C1c1cccc(Cl)c1 (stereo not shown) [ST013152, pentyl 4-(3-chlorophenyl)-2-methyl-5-oxo-1,4,6,7,8-pentahydroquinoline-3-carboxylate] | 33.2% | 22% |  |  |
| COc1ccc(OC)c(C2C(C#N)=C(C)NC3=C2C(=O)CC(c2ccccc2)C3)c1 (stereo not shown) [ST018638, 4-(2,5-dimethoxyphenyl)-2-methyl-5-oxo-7-phenyl-1,4,6,7,8-pentahydroquinoline-3-carbonitrile] | 53.8% | 45.4% |  |  |
| CCCCCOC(=O)C1=C(C)NC2=C(C(=O)CC(C)(C)C2)C1c1ccccc1Br (stereo not shown) [ST216079, pentyl 4-(2-bromophenyl)-2,7,7-trimethyl-5-oxo-1,4,6,7,8-pentahydroquinoline-3-carboxylate] | 20.5% | 25.8% |  |  |
| CC(=O)Oc1ccc(C2C(C(=O)OCCOc3ccccc3)=C(C)NC3=C2C(=O)CC(c2ccccc2)C3)cc1 (stereo not shown) [ST017230, 4-{2-methyl-5-oxo-7-phenyl-3-[(2-phenoxyethyl)oxycarbonyl]-4-1,4,6,7,8-pentahydroquinolyl}phenyl acetate] | 84.7% | 69.1% |  |  |
| CCc1cccc(NC(=O)CSC2=C(C#N)C(c3sccc3Oc3ccccc3)C(C(=O)Nc3ccccc3)=C(C)N2)c1 (stereo not shown) [RI_81] |  |  | 100 % of control | 73.6 % of control |
| CCOC(=O)C1=C(C)NC2=C(C(=O)CCC2)C1c1ccc(OCc2ccc(C)cc2)c(OC)c1 (stereo not shown) [ST028606, ethyl 4-{3-methoxy-4-[(4-methylphenyl)methoxy]phenyl}-2-methyl-5-oxo-1,4,6,7,8-pentahydroquinoline-3-carboxylate] | 52% | 24.2% |  |  |
| CCOc1cc(C2C(C(=O)OCCSCC)=C(C)NC3=C2C(=O)CC(c2ccc(Cl)cc2)C3)ccc1O (stereo not shown) [ST017243, 2-ethylthioethyl 7-(4-chlorophenyl)-4-(3-ethoxy-4-hydroxyphenyl)-2-methyl-5-ox o-1,4,6,7,8-pentahydroquinoline-3-carboxylate] | 15.6% | 69.6% |  |  |
| CCCCOC(=O)C1=C(C)NC2=C(C(=O)CC(C)(C)C2)C1c1ccc(Cl)cc1 (stereo not shown) [ST024431, butyl 4-(4-chlorophenyl)-2,7,7-trimethyl-5-oxo-1,4,6,7,8-pentahydroquinoline-3-carboxylate] | 0% | 0% |  |  |
| CC1=C(C(=O)OCCOc2ccccc2)C(c2ccc(F)cc2)C2=C(CCCC2=O)N1 (stereo not shown) [ST014891, 2-phenoxyethyl 4-(4-fluorophenyl)-2-methyl-5-oxo-1,4,6,7,8-pentahydroquinoline-3-carboxylate] | 39.3% | 51.8% |  |  |
| COC(=O)C1=C(C)NC2=C(C(=O)CC(C)(C)C2)C1c1cccc(OCc2ccccc2)c1 (stereo not shown) [ST052360, methyl 2,7,7-trimethyl-5-oxo-4-[3-(phenylmethoxy)phenyl]-1,4,6,7,8-pentahydroquinoline-3-carboxylate] | 61.6% | 55.7% |  |  |

— US20100119599A1 (ARCHER PHARMACEUTICALS, INC., priority 2006, published 2010)
